Test results reported in patent publication EP4752152A1, “STEROID COMPOUND, AND PREPARATION METHOD THEREFOR AND USE THEREOF” (Cholesgen (Shanghai) Co.Ltd., priority 2023, dated 2025).

test system: SREBP pathway; assay: SREBP luciferase reporter gene system (SRE-luciferase assay); type: cell-based, human; conditions: Homo sapiens, Huh-7, 16 h, Huh-7/SRE-luc cells, sterol-deficient medium, 0.01-10 µM
Description: Huh-7/SRE-luc cells were incubated in sterol-deficient medium (5% lipoprotein deficient serum, 2 µM lovastatin, 10 µM mevalonic acid) with corresponding concentrations of compounds for 16 hours. The Huh-7/SRE-luc cells were human hepatoma cell line Huh-7 stably expressing LDLR promotor-luciferase and green fluorescent protein (GFP). These cells were obtained by transfecting Huh-7 with pLDLR-promotor-luciferase and pEGFP-N1 plasmids, followed by screening under G418 antibiotic selection pressure. The Huh-7 cells were purchased from ATCC, the pLDLR-promotor-luciferase plasmid was obtained by molecular cloning methods, and the pEGFP-N1 plasmid was purchased from Addgene.
After compound treatment, the cells were lysed with lysis buffer (E397A, Promega). After the addition of luciferase substrate (E1500, Promega), the activity of SRE-driven luciferase was measured using a BioTek Synergy HTX microplate reader (including but not limited to this type of instrument). The fluorescence intensity of green fluorescent protein (EGFP) was also measured using the above BioTek microplate reader (including but not limited to this type of instrument) and served as an internal control. The ratio of SRE-driven luciferase activity divided by the fluorescence intensity of green fluorescent protein was used as an indicator of SREBP pathway activity. The test data for each test compound were analyzed using Prism software (with the DMSO-treated group as the reference to calculate the compound inhibition rate, fitted using the Prism log(inhibitor) vs. response--Variable slope (four-parameter) model, calculation formula: Y = Bottom + (Top - Bottom)/(1 + 10^((LogIC50 - X) × HillSlope))), to obtain the IC50 parameters of the compounds.
Using the method described in 1.1, the inhibitory effect of the compounds of the present disclosure on the SREBP pathway was tested. The concentration gradient for each compound was designed as 0.01, 0.03, 0.1, 0.3, 1.0, 3.0, and 10 µM, with the vehicle DMSO as the control.

Q: With `COc1cccc(F)c1C(O)CCCC(C)C1CCC2C3=C(F)CC4C(O)C(O)CCC4(C)C3CCC21C` (single isomer, unassigned) [Compound 163] as the molecule, how does the IC50 read?
A: The IC50 was 0.201 µM.

Q: With `C[C@H](CCCC(O)c1cccc(OC(F)(F)F)c1)[C@H]1CC[C@H]2[C@H]3[C@H](CC[C@]12C)[C@@]1(C)CC[C@H](O)[C@H](O)[C@@H]1CC3(F)F` (single isomer, unassigned) [Compound 190, (1R,3aS,3bS,5aR,6R,7S,9aR,9bS,11aR)-4,4-difluoro-1-[(2R,6S)-6-hydroxy-6-{^3-[(trifluoromethyl)oxy]phenyl}hexan-2-yl]-9a,11a-dimethylhexadecahydro-1H-cyclopenta[1,2-a]phenanthrene-6,7-diol or (1R,3aS,3bS,5aR,6R,7S,9aR,9bS,11aR)-4,4-difluoro-1-[(2R,6R)-6-hydroxy-6-{3-[(trifluoromethyl)oxy]phenyl}hexan-2-yl]-9a,11a-dimethylhexadecahydro-1H-cyclopenta[1,2-a]phenanthrene-6,7-diol] as the molecule, how does the IC50 read?
A: Its IC50 is 0.355 µM.

Q: Which IC50 does the source give for `COc1cc(F)cc(F)c1[C@@H](O)CCC[C@@H](C)[C@H]1CC[C@H]2C3=C(F)C[C@H]4[C@@H](O)[C@@H](O)CC[C@]4(C)[C@H]3CC[C@]12C` (single isomer, unassigned) [Compound 202] here?
A: The IC50 was 0.411 µM.

Q: How did the IC50 turn out when `COc1cc(F)cc(F)c1[C@H](O)CCC[C@@H](C)[C@H]1CC[C@H]2C3=C(F)C[C@H]4[C@@H](O)[C@@H](O)CC[C@]4(C)[C@H]3CC[C@]12C` (single isomer, unassigned) [Compound 203] was run?
A: The IC50 was 0.174 µM.

Q: With `COc1cc(F)c(C(O)CCCC(C)C2CCC3C4C(CCC23C)C2(C)CCC(O)C(O)C2CC4(F)F)c(F)c1` (single isomer, unassigned) [Compound 204, (1R,3aS,3bS,5aR,6R,7S,9aR,9bS,11aR)-1-[(2R,6S)-6-(2,6-difluoro-4-methoxyphenyl)-6-hydroxyhexan-2-yl]-4,4-difluoro-9a,11a-dimethylhexadecahydro-1H-cyclopenta[1,2-a]phenanthrene-6,7-diol or (1R,3aS,3bS,5aR,6R,7S,9aR,9bS,11aR)-1-[(2R,6R)-6-(2,6-difluoro-4-methoxyphenyl)-6-hydroxyhexan-2-yl]-4,4-difluoro-9a,11a-dimethylhexadecahydro-1H-cyclopenta[1,2-a]phenanthrene-6,7-diol] as the molecule, how does the IC50 read?
A: Its IC50 is 0.145 µM.

Q: With `COc1cc(F)c(C(O)CCC[C@@H](C)[C@H]2CC[C@H]3[C@H]4[C@H](CC[C@]23C)[C@@]2(C)CC[C@H](O)[C@H](O)[C@@H]2CC4(F)F)c(F)c1` (single isomer, unassigned) [Compound 205, (1R,3aS,3bS,5aR,6R,7S,9aR,9bS,11aR)-1-[(2R,6R)-6-(2,6-difluoro-4-methoxyphenyl)-6-hydroxyhexan-2-yl]-4,4-difluoro-9a,11a-dimethylhexadecahydro-1H-cyclopenta[1,2-a]phenanthrene-6,7-diol or (1R,3aS,3bS,5aR,6R,7S,9aR,9bS,11aR)-1-[(2R,6S)-6-(2,6-difluoro-4-methoxyphenyl)-6-hydroxyhexan-2-yl]-4,4-difluoro-9a,11a-dimethylhexadecahydro-1H-cyclopenta[1,2-a]phenanthrene-6,7-diol] as the molecule, how does the IC50 read?
A: The IC50 was 0.107 µM.

Q: With `COc1cccc(F)c1C(CCC[C@@H](C)[C@H]1CC[C@H]2[C@H]3[C@H](CC[C@]12C)[C@@]1(C)CC[C@H](O)[C@H](O)[C@@H]1CC3(F)F)=NO` (single isomer, unassigned) [Compound 211, [(1Z,5R)-5-[(1R,3aS,3bS,5aR,6R,7S,9aS,9bS,11aR)-4,4-difluoro-6,7-dihydroxy-9a,9b,11a-trimethylhexadecahydro-1H-cyclopenta[1,2-a]phenanthren-1-yl]-1-(2-fluoro-6-methoxyphenyl)hexylidene]hydroxylamine or [(1E,5R)-5-[(1R,3aS,3bS,5aR,6R,7S,9aR,9bS,11aR)-4,4-difluoro-6,7-dihydroxy-9a,11a-dimethylhexadecahydro-1H-cyclopenta[1,2-a]phenanthren-1-yl]-1-(2-fluoro-6-methoxyphenyl)hexylidene]hydroxylamine] as the molecule, how does the IC50 read?
A: The IC50 was 0.08 µM.

Q: With `COc1cccc(F)c1[C@@H](F)CCC[C@@H](C)[C@H]1CC[C@H]2[C@H]3[C@H](CC[C@]12C)[C@@]1(C)CC[C@H](O)[C@H](O)[C@@H]1CC3(F)F` (single isomer, unassigned) [Compound 215] as the molecule, how does the IC50 read?
A: The IC50 was 3.57 µM.

Q: For `COc1cccc(F)c1[C@H](F)CCC[C@@H](C)[C@H]1CC[C@H]2[C@H]3[C@H](CC[C@]12C)[C@@]1(C)CC[C@H](O)[C@H](O)[C@@H]1CC3(F)F` (single isomer, unassigned) [Compound 216], which IC50 is on record?
A: Its IC50 is 2.65 µM.

Q: `COc1nc(C)ccc1C(O)CCC[C@@H](C)[C@H]1CC[C@H]2[C@H]3[C@H](CC[C@]12C)[C@@]1(C)CC[C@H](O)[C@H](O)[C@@H]1CC3(F)F` (single isomer, unassigned) [Compound 217, (1R,3aS,3bS,5aR,6R,7S,9aR,9bS,11aR)-4,4-difluoro-1-[(2R,6S)-6-hydroxy-6-(2-methoxy-6-methylpyridin-3-yl)hexan-2-yl]-9a,11a-dimethylhexadecahydro-1H-cyclopenta[1,2-a]phenanthrene-6,7-diol or (1R,3aS,3bS,5aR,6R,7S,9aR,9bS,11aR)-4,4-difluoro-1-[(2R,6R)-6-hydroxy-6-(2-methoxy-6-methylpyridin-3-yl)hexan-2-yl]-9a,11a-dimethylhexadecahydro-1H-cyclopenta[1,2-a]phenanthrene-6,7-diol] was tested. Which IC50 did it give?
A: The IC50 was 0.21 µM.

same assay, conditions: Huh-7/SRE-luc cells, sterol-deficient medium, 16 hours, 0.01-10 µM

Q: `COc1cccc(F)c1C(O)CCCC(C)C1CCC2C3=C(F)CC4C(O)C(O)CCC4(C)C3CCC21C` (single isomer, unassigned) [Compound 164] was tested. Which IC50 did it give?
A: Its IC50 is 0.295 µM.

Q: `COc1ccc(F)c(C(O)CCC[C@@H](C)[C@H]2CC[C@H]3[C@H]4[C@H](CC[C@]23C)[C@@]2(C)CC[C@H](O)[C@H](O)[C@@H]2CC4(F)F)c1` (single isomer, unassigned) [Compound 166, (1R,3aS,3bS,5aR,5aR,6R,7S,9aR,9bS,11aR) -4,4-difluoro-1-[(2R,6S)-6-(2-fluoro-5-methoxyphenyl)-6-hydroxyhexan-2-yl]-9a,11a-dimethylhexadecahydro-1H-cyclopenta[1,2-a]phenanthrene-6,7-diol or (1R,3aS,3bS,5aR,6R,7S,9aR,9bS,11aR)-4,4-difluoro-1-[(2R,6R)-6-(2-fluoro-5-methoxyphenyl)-6-hydroxyhexan-2-yl]-9a,11a-dimethylhexadecahydro-1H-cyclopenta[1,2-a]phenanthrene-6,7-diol] was tested. Which IC50 did it give?
A: Its IC50 is 0.138 µM.

Q: Which IC50 does the source give for `COc1ccc(F)c(C(O)CCC[C@@H](C)[C@H]2CC[C@H]3[C@H]4[C@H](CC[C@]23C)[C@@]2(C)CC[C@H](O)[C@H](O)[C@@H]2CC4(F)F)c1` (single isomer, unassigned) [Compound 167, (1R,3aS,3bS,5aR,6R,7S,9aR,9bS,11aR)-4,4-difluoro-1-[(2R,6R)-6-(2-fluoro-5-methoxyphenyl)-6-hydroxyhexan-2-yl]-9a,11a-dimethylhexadecahydro-1H-cyclopenta[1,2-a]phenanthrene-6,7-diol or (1R,3aS,3bS,5aR,5aR,6R,7S,9aR,9bS,11aR) -4,4-difluoro-1-[(2R,6S)-6-(2-fluoro-5-methoxyphenyl)-6-hydroxyhexan-2-yl]-9a,11a-dimethylhexadecahydro-1H-cyclopenta[1,2-a]phenanthrene-6,7-diol] here?
A: Its IC50 is 0.88 µM.

Q: Which IC50 does the source give for `COc1ccnc(OC)c1C(O)CCC[C@@H](C)[C@H]1CC[C@H]2[C@H]3[C@H](CC[C@]12C)[C@@]1(C)CC[C@H](O)[C@H](O)[C@@H]1CC3(F)F` (single isomer, unassigned) [Compound 172, (1R,3aS,3bS,5aR,6R,7S,9aR,9bS,11aR)-1-[(2R,6R)-6-(2,4-dimethoxypyridin-3-yl)-6-hydroxyhexan-2-yl]-4,4-difluoro-9a,11a-dimethylhexadecahydro-1H-cyclopenta[1,2-a]phenanthrene-6,7-diol or (1R,3aS,3bS,5aR,6R,7S,9aR,9bS,11aR)-1-[(2R,6S)-6-(2,4-dimethoxypyridin-3-yl)-6-hydroxyhexan-2-yl]-4,4-difluoro-9a,11a-dimethylhexadecahydro-1H-cyclopenta[1,2-a]phenanthrene-6,7-diol] here?
A: The IC50 was 0.113 µM.

Q: `COc1nc(C)ccc1C(O)CCC[C@@H](C)[C@H]1CC[C@H]2[C@H]3[C@H](CC[C@]12C)[C@@]1(C)CC[C@H](O)[C@H](O)[C@@H]1CC3(F)F` (single isomer, unassigned) [Compound 218, (1R,3aS,3bS,5aR,6R,7S,9aR,9bS,11aR)-4,4-difluoro-1-[(2R,6R)-6-hydroxy-6-(2-methoxy-6-methylpyridin-3-yl)hexan-2-yl]-9a,11a-dimethylhexadecahydro-1H-cyclopenta[1,2-a]phenanthrene-6,7-diol or (1R,3aS,3bS,5aR,6R,7S,9aR,9bS,11aR)-4,4-difluoro-1-[(2R,6S)-6-hydroxy-6-(2-methoxy-6-methylpyridin-3-yl)hexan-2-yl]-9a,11a-dimethylhexadecahydro-1H-cyclopenta[1,2-a]phenanthrene-6,7-diol] was tested. Which IC50 did it give?
A: The IC50 was 0.141 µM.
